Laboratory results as given in patent US20230303540A1 (Merck Sharp & Dohme LLC, priority 2020, published 2023).

These compounds were tested against GST-tagged truncated human mutant G2019S LRRK2 (Homo sapiens, UniProt Q5S007, G2019S) (assay: LRRK2 G2019S Km ATP LanthaScreen assay). Conditions: 134 μM ATP (Km ATP), LRRKtide substrate, mean IC50 values; read-out: LRRK2 pIC50 (converted).
Type: biochemical
Method in brief: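 Compound preincubated 15 min at room temperature with enzyme in pH 8.5 Tris buffer (10 mM MgCl2). Then a 90 min reaction at ambient temperature with 134 μM (Km) ATP and fluorescein-LRRKtide. EDTA stop, Tb anti-phospho antibody TR-FRET; […]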
Compound `CC1(O)CCN(c2cc3nc(Nc4cnn(C5CC5)c4)ncc3cc2Cl)CC1` [Ex-3.9, 1-{6-chloro-2-[(1-cyclopropyl-1H-pyrazol-4-yl)amino]quinazolin-7-yl}-4-methylpiperidin-4-ol] has an IC50 of 5.9 nM.
Compound `CCn1ncc(Nc2ncc3ccc(N4C(=O)[C@@H]5CC[C@H]4C5)nc3n2)c1C` (single isomer, unassigned) [Ex-15.3, (1S,4R) or (1R,4S)-2-{2-[(1-ethyl-5-methyl-1H-pyrazol-4-yl)amino]pyrido[2,3-d]pyrimidin-7-yl}-2-azabicyclo[2.2.1]heptan-3-one] has an IC50 of 4.43 nM.
With `CC1CCC12CN(c1cc3nc(Nc4cnn(C5(C)CC5)c4Cl)ncc3cc1Cl)C2` (single isomer, unassigned) [Ex-4.26, (R) or (S) 6-chloro-N-[5-chloro-1-(1-methylcyclopropyl)-1H-pyrazol-4-yl]-7-(5-methyl-2-azaspiro[3.3]heptan-2-yl)quinazolin-2-amine] the IC50 was 9.09 nM.
Compound `Cc1cc(Nc2ncc3ccc(N4C(=O)OC[C@@H]4C)cc3n2)n(C)n1` [Ex-8.1, (4S)-3-{2-[(1,3-dimethyl-1H-pyrazol-5-yl)amino]quinazolin-7-yl}-4-methyl-1,3-oxazolidin-2-one] has an IC50 of 4.41 nM.
Compound `Cc1cc2cnc(Nc3cnn(C)c3C)nc2cc1N1CCN(C2COCC2O)CC1` (single isomer, unassigned) [Ex-2.3, (3S,4S or 3R,4R)-4-(4-{2-[(1,5-dimethyl-1H-pyrazol-4-yl)amino]-6-methylquinazolin-7-yl}piperazin-1-yl)oxolan-3-ol] has an IC50 of 1.77 nM.
`Cc1c(Nc2ncc3cc(Cl)c(N4CCN(C5(C)COCC5O)CC4)cc3n2)cnn1C1CC1(F)F` (single isomer, unassigned) [Ex-6.42, (3S,4S) or (3R,4R) 4-[4-(6-chloro-2-{[1-(2,2-(R) or (S)difluorocyclopropyl)-5-methyl-1H-pyrazol-4-yl]amino}quinazolin-7-yl)piperazin-1-yl]-4-methyloxolan-3-ol] showed an IC50 of 21.4 nM.
With `OC1CN(C2CCN(c3cc4nc(Nc5cnn(C6CC6)c5Cl)ncc4cc3Cl)CC2)C1` [Ex-1.37, 1-(1-{6-chloro-2-[(5-chloro-1-cyclopropyl-1H-pyrazol-4-yl)amino]quinazolin-7-yl}piperidin-4-yl)azetidin-3-ol] the IC50 was 1.71 nM.
`CC1(N2CCN(c3cc4nc(Nc5cnn(C(C)(C)C)c5)ncc4cc3Cl)CC2)COC1` [Ex-4.46, N-(1-tert-butyl-1H-pyrazol-4-yl)-6-chloro-7-[4-(3-methyloxetan-3-yl)piperazin-1-yl]quinazolin-2-amine] was tested, and the IC50 was 0.792 nM.
Compound `CCn1ncc(Nc2ncc3ccc(N4C(=O)OCC4C4CC4)cc3n2)c1C` (single isomer, unassigned) [Ex-7.15, (R) or (S) 4-cyclopropyl-3-{2-[(1-ethyl-5-methyl-1H-pyrazol-4-yl)amino]quinazolin-7-yl}-1,3-oxazolidin-2-one] has an IC50 of 9.26 nM.
`CC1(O)CCN(c2cc3nc(Nc4cnn(C(C)(C)C#N)c4Cl)ncc3cc2Cl)CC1` [Ex-6.6, 2-(5-chloro-4-{[6-chloro-7-(4-hydroxy-4-methylpiperidin-1-yl)quinazolin-2-yl]amino}-1H-pyrazol-1-yl)-2-methylpropanenitrile] gave an IC50 of 4.02 nM.
In the case of `C[C@H]1COC(=O)N1c1ccc2cnc(Nc3cn(C)nc3C(F)(F)F)nc2c1` [Ex-7.7, (4S)-4-methyl-3-(2-{[1-methyl-3-(trifluoromethyl)-1H-pyrazol-4-yl]amino}quinazolin-7-yl)-1,3-oxazolidin-2-one], the IC50 is reported as 1.92 nM.
`CC1(N2CCN(c3cc4nc(Nc5cnn(C67CC(F)(C6)C7)c5Cl)ncc4cc3Cl)CC2)COCC1O` (single isomer, unassigned) [Ex-13.8, (3S,4S) or (3R,4R)4-(4-(6-chloro-2-((5-chloro-1-(3-fluorobicyclo[1.1.1]pentan-1-yl)-1H-pyrazol-4-yl)amino)quinazolin-7-yl)piperazin-1-yl)-4-methyltetrahydrofuran-3-ol] showed an IC50 of 1.69 nM.
In the case of `Cn1nc(Cl)cc1Nc1ncc2cc(Cl)c(N3CCN(C4(C)COCC4O)CC3)cc2n1` (stereo not drawn), the IC50 is reported as 5.97 nM.
In the case of `Cc1cc2cnc(Nc3cnn(C4CC4)c3Cl)nc2cc1N1CCC(C)(O)CC1` [Ex-3.55, 1-{2-[(5-chloro-1-cyclopropyl-1H-pyrazol-4-yl)amino]-6-methylquinazolin-7-yl}-4-methylpiperidin-4-ol], the IC50 is reported as 12.1 nM.
Work on `CC1(N2CCN(c3cc4nc(Nc5cnn(C6(C(F)(F)F)CC6)c5Cl)ncc4cc3Cl)CC2)COC1` [Ex-3.24, 6-chloro-N-{5-chloro-1-[1-(trifluoromethyl)cyclopropyl]-1H-pyrazol-4-yl}-7-[4-(3-methyloxetan-3-yl)piperazin-1-yl]quinazolin-2-amine] yielded an IC50 of 3.68 nM.
With `CCc1cc2cnc(Nc3cnn(C4CC4(F)F)c3Cl)nc2cc1N1CCN(C2(C)COCC2O)CC1` (single isomer, unassigned) [Ex-8.3, (3S,4S) or (3R,4R) 4-(4-(2-((5-chloro-1-(2,2-(R) or (S)difluorocyclopropyl)-1H-pyrazol-4-yl)amino)-6-ethylquinazolin-7-yl)piperazin-1-yl)-4-methyltetrahydrofuran-3-ol] the IC50 was 0.745 nM.
Compound `Cc1c(Nc2ncc3ccc(N4C(=O)OCC4C4CC4)cc3n2)cnn1C1CCOCC1` (single isomer, unassigned) [Ex-7.14, (R) or (S) 4-cyclopropyl-3-(2-{[5-methyl-1-(oxan-4-yl)-1H-pyrazol-4-yl]amino}quinazolin-7-yl)-1,3-oxazolidin-2-one] has an IC50 of 0.749 nM.
`F[C@H]1CN(C2COC2)CC[C@@H]1n1ncc(Nc2ncc3cc(Cl)c(N4CCC5(CC4)COC5)cc3n2)c1Cl` [Ex-1.4, 6-chloro-N-{5-chloro-1-[(3S,4S)-3-fluoro-1-(oxetan-3-yl)piperidin-4-yl]-1H-pyrazol-4-yl}-7-(2-oxa-7-azaspiro[3.5]nonan-7-yl)quinazolin-2-amine] gave an IC50 of 1.54 nM.
`C[C@@H]1CN(C2COC2)CC[C@@H]1n1ncc(Nc2ncc3ccc(N4C(=O)OC[C@@H]4C)cc3n2)c1Cl` [Ex-8.11, (4.5)-3-[2-({5-chloro-1-[(3R,4S)-3-methyl-1-(oxetan-3-yl)piperidin-4-yl]-1H-pyrazol-4-yl}amino)quinazolin-7-yl]-4-methyl-1,3-oxazolidin-2-one] showed an IC50 of 1.59 nM.
`COC1CCC1n1ncc(Nc2ncc3cc(Cl)c(N4CCC(C)(O)CC4)cc3n2)c1C` (single isomer, unassigned) [Ex-6.16, 1-(6-chloro-2-((1-((1R,2S) or (1S,2R)-2-methoxycyclobutyl)-5-methyl-1H-pyrazol-4-yl)amino)quinazolin-7-yl)-4-methylpiperidin-4-ol] showed an IC50 of 1.57 nM.
For `Cc1c(Nc2ncc3ccc(N(C)C4COC4)cc3n2)cnn1C1CCOCC1` [Ex-1.47, N-7-methyl-N-2-[5-methyl-1-(oxan-4-yl)-1H-pyrazol-4-yl]-N-7-(oxetan-3-yl)quinazoline-2,7-diamine], the IC50 was 38.8 nM.
For `Cc1c(Nc2ncc3cc(Cl)c(N4C[C@H]5CC[C@@H](C4)[C@@]5(C)O)cc3n2)cnn1C1CC1` [Ex-3.27, (8-syn)-3-{6-chloro-2-[(1-cyclopropyl-5-methyl-1H-pyrazol-4-yl)amino]quinazolin-7-yl}-8-methyl-3-azabicyclo[3.2.1] octan-8-ol], the IC50 was 0.486 nM.
In the case of `CC1(N2CCN(c3cc4nc(Nc5cnn(C6CC6(F)F)c5Cl)ncc4cc3Cl)CC2)COCC1O` (single isomer, unassigned) [Ex-6.35, (3S,4S) or (3R,4R) 4-[4-(6-chloro-2-{[5-chloro-1-(2,2-(R) or (S)difluorocyclopropyl)-1H-pyrazol-4-yl]amino}quinazolin-7-yl)piperazin-1-yl]-4-methyloxolan-3-ol], the IC50 is reported as 20.8 nM.
`Cc1cc2cnc(Nc3cnn(C4CC4(F)F)c3C)nc2cc1N1CCN(C2COCC2O)CC1` (single isomer, unassigned) [Ex-5.2, (3S,4S) or (3R,4R) 4-(4-(2-((1-(2,2-(R) or (S)difluorocyclopropyl)-5-methyl-1H-pyrazol-4-yl)amino)-6-methylquinazolin-7-yl)piperazin-1-yl)tetrahydrofuran-3-ol] was tested, and the IC50 was 0.45 nM.
In the case of `C[C@H]1COC(=O)N1c1ccc2cnc(Nc3cnn([C@@H]4CCN(C5COC5)C[C@H]4F)c3Cl)nc2c1` [Ex-7.2, (4S)-3-[2-({5-chloro-1-[(3R,4R)-3-fluoro-1-(oxetan-3-yl)piperidin-4-yl]-1H-pyrazol-4-yl}amino)quinazolin-7-yl]-4-methyl-1,3-oxazolidin-2-one], the IC50 is reported as 0.625 nM.
For `FC1(F)CN(C2CCN(c3cc4nc(Nc5cnn(C6CC6)c5Cl)ncc4cc3Cl)CC2)C1` [Ex-1.25, 6-chloro-N-(5-chloro-1-cyclopropyl-1H-pyrazol-4-yl)-7-[4-(3,3-difluoroazetidin-1-yl)piperidin-1-yl]quinazolin-2-amine], the IC50 was 4.33 nM.
For `CC1(O)CCN(c2c(Cl)cc3cnc(Nc4cnn(C56CC(C5)C6)c4Cl)nc3c2Cl)CC1` [Ex-6.12, 1-(2-{[1-(bicyclo[1.1.1]pentan-1-yl)-5-chloro-1H-pyrazol-4-yl]amino}-6,8-dichloroquinazolin-7-yl)-4-methylpiperidin-4-ol], the IC50 was 1.24 nM.
`C[C@]1(O)[C@@H]2CC[C@H]1CN(c1cc3nc(Nc4cnn(C56CC(C5)C6)c4Cl)ncc3cc1Cl)C2` [Ex-3.38, (8-syn)-3-(2-{[1-(bicyclo[1.1.1]pentan-1-yl)-5-chloro-1H-pyrazol-4-yl]amino}-6-chloroquinazolin-7-yl)-8-methyl-3-azabicyclo[3.2.1]octan-8-ol] gave an IC50 of 6.62 nM.
`FC(F)(F)C1(n2ncc(Nc3ncc4cc(Cl)c(N5CCN(C6COC6)CC5)cc4n3)c2Cl)CC1` [Ex.3.23, 6-chloro-N-{5-chloro-1-[1-(trifluoromethyl)cyclopropyl]-1H-pyrazol-4-yl}-7-[4-(oxetan-3-yl)piperazin-1-yl]quinazolin-2-amine] showed an IC50 of 3.45 nM.
For `Cn1ncc(Nc2ncc3cc(Cl)c(N4CCN(C5(C)COC5)CC4)cc3n2)c1C(F)(F)F` [Ex-4.15, 6-chloro-7-[4-(3-methyloxetan-3-yl)piperazin-1-yl]-N-[1-methyl-5-(trifluoromethyl)-1H-pyrazol-4-yl]quinazolin-2-amine], the IC50 was 19.3 nM.
